Consider nine compounds from patent US11465984B2, “Compound having ERK kinase inhibitory activity and use thereof” (SHANGHAI HAIHE PHARMACEUTICAL CO., LTD., priority 2017, dated 2022).

pIC50: −log10 of the molar value.

ERK2 kinase, sequence (P28482 whole entry): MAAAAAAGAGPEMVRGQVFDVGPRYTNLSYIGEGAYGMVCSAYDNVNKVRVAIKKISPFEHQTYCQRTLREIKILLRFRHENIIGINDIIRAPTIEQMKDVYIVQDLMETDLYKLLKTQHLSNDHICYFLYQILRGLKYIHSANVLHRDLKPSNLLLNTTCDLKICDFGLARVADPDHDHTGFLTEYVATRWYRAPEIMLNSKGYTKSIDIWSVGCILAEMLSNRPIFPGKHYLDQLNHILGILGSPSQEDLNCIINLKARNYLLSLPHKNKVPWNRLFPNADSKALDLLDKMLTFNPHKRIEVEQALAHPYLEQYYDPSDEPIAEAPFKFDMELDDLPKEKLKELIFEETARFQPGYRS

The first data set has as its system patients having melanoma with NRAS mutation and solid tumors with BRAF V600 and non-V600 mutants.
Test: not given
The note with it: 600 mg twice a day; cited from earlier work.
Turning to `CC(C)Nc1cc(-c2c[nH]c(C(=O)N[C@H](CO)c3cccc(Cl)c3)c2)c(Cl)cn1` [BVD-523, Ulixertinib], the efficacy in patients entry is “lasting efficacy” and the safety in patients entry is listed as “acceptable safety”.

The next data set deals with ERK2 kinase (Homo sapiens (Human), UniProt P28482). The data set can be described thus: In vitro enzyme activity assay, ERK2 kinase (Z'-LYTE). The note with it: class symbols; read-out: ERK2 IC50. It is filed as biochemical. As for the experimental part:
Half inhibitory activity of the compounds of the invention against ERK2 kinase (IC50 value) was determined in this Example.
• Enzyme: extracellular signal-regulated kinase ERK2 kinase (PV3595, Invitrogen) • Kit: Z′-LYTE® Protein Kinase Assay Kit-Ser/Thr 3 Peptide (PV3176, Invitrogen) • Kit components: The substrate Z′-LYTE™ Ser/Thr 3 Peptide (PV3200) • The phosphorylation substrate Z′-LYTE™ Ser/Thr 3 Phospho-peptide (PV3215) • 5× kinase buffer: 250 mM HEPES (pH 7.5), 50 mM MgCl2, • 5 mM EGTA, 0.05% BRIJ-35 (PV3189, Invitrogen) • ATP (PV3227, Invitrogen) • Development Reagent A (PV3295, Invitrogen) • Development Buffer (P3127, Invitrogen) • Stop Reagent (P3094, Invitrogen) • Microplate reader: The multil-mode microplate reader PerkinElmer EnVision® • Microplate: black shallow 384-well microplate (6008269, PerkinElmer) (2). Assay Protocol:
The substrate Z′-LYTE™ Ser/Thr 3 Peptide, the phosphorylation substrate Z′-LYTE™ Ser/Thr 3 Phospho-peptide, 1× kinase buffer (5× kinase buffer was diluted with ultra pure water by five times), ATP, Development Reagent A, Development Buffer, Stop Reagent were balanced to room temperature for use. The screening concentrations for detecting the effect of the compounds of the invention on the ERK kinase activity were seven 3-fold serial dilutions starting from 1 μM (from 0.2 μM for the positive drug control) using 4% DMSO as co-solvent. 5 μL enzyme system (50 mM HEPES pH 7.5, 1 mM EGTA, 10 mM MgCl2, 0.01% Brij-35, 4 uM substrate, 0.8 ng/μL enzyme), 2.5 μL Compound, 2.5 μL 400 μM ATP were added into 384 well microplate, followed by incubation at room temperature for 60 min in the dark. After the reaction was completed, 5 μl the developing agent (Development Reagent A) diluted with the developing buffer (Development Buffer) was added to all reaction wells, followed by incubation at the room temperature for 60 min in the dark. 5 μL the terminating agent was added to each well to terminate the reaction. The fluorescence was determined using the multil-mode microplate reader PerkinElmer EnVision® (excitation wavelength 400 nm, emission wavelength 460 nm and 528 nm).
The inhibition rate of each well was calculated from 100% phosphorylation substrate well and 0% phosphorylation substrate well using the data analysis method below: phosphorylation %=1−{(emission rate×F100%−C100%)/[C0%−C100%+emission rate×(F100%−F0%)]}×100 inhibition %=100×(1−phosphorylation % of the test compound well/phosphorylation % of the 0% inhibition control) • wherein: • emission rate=fluorescence emission of the sample at 445 nm/fluorescence emission of the sample at 520 nm • F100%=the average fluorescence emission of the control well of 100% phosphorylation substrate at 520 nm • F0%=the average fluorescence emission of the control well of 0% phosphorylation substrate at 520 nm • C100%=the average fluorescence emission of the control well of 100% phosphorylation substrate at 445 nm • C0%=the average fluorescence emission of the control well of 0% phosphorylation substrate at 445 nm
Tests were carried out in duplicate. IC50 values were calculated from the inhibition of the kinase by the test compounds at a range of different concentrations.
Consider `Cn1nccc1Nc1cc(-c2cc(Cl)c3c(c2)CCN3C(=O)Cc2cccnc2Cl)ccn1` [Example P14, 1-(7-chloro-5-(2-((1-methyl-1H-pyrazol-5-yl)amino)pyridin-4-yl)indolin-1-yl)-2-(2-chloropyridin-3-yl)ethan-1-one], for which the pIC50 is 7.00 to 8.00.
Take `Cn1nc(CO)cc1Nc1cc(-c2cc(F)c3c(c2)CCN3C(=O)Cc2cccnc2Cl)ccn1` [Example P35, 2-(2-chloropyridin-3-yl)-1-(7-fluoro-5-(2-((3-(hydroxylmethyl)-1-methyl-1H-pyrazol-5-yl)amino)pyridin-4-yl)indolin-1-yl)ethan-1-one]: the pIC50 was 7.00 to 8.00.
As for `Cc1cc(-c2ccnc(Nc3ccnn3C)n2)cc2c1N(C(=O)Cc1cccnc1Cl)CC2` [Example P13, 2-(2-chloropyridin-3-yl)-1-(7-methyl-5-(2-((1-methyl-1H-pyrazol-5-yl)amino)pyrimidin-4-yl)indolin-1-yl)ethan-1-one], the negative-log IC50 (pIC50) was 6.00 to 7.00.
On the same count and under the same terms, the result for `Cn1nccc1Nc1cc(-c2cc(F)c3c(c2)CCN3C(=O)Cc2ccccc2Cl)ccn1` [Example P31, 2-(2-chlorophenyl)-1-(7-fluoro-5-(2-((1-methyl-1H-pyrazol-5-yl)amino)pyridin-4-yl)indolin-1-yl)ethan-1-one] reads at least 8.00; that for `Cn1nccc1Nc1nccc(-c2cc(F)c3c(c2F)CCN3C(=O)Cc2cccnc2Cl)n1` [Example P50, 2-(2-chloropyridin-3-yl)-1-(4,7-difluoro-5-(2-((1-methyl-1H-pyrazol-5-yl)amino)pyrimidin-4-yl)indolin-1-yl)ethan-1-one], 6.00 to 7.00.
Still for that read-out and setting: the result for `[2H]C([2H])([2H])n1nccc1Nc1cc(-c2cc(F)c3c(c2)CCN3C(=O)Cc2cccnc2Cl)ccn1` [Example P46, 2-(2-chloropyridin-3-yl)-1-(7-fluoro-5-(2-((1-(deuteriomethyl)-1H-pyrazol-5-yl)amino)pyridin-4-yl)indolin-1-yl)ethan-1-one] reads at least 8.00; that for `Cn1nccc1Nc1cc(-c2cc(F)c3c(c2)CCN3C(=O)Cc2cccnc2Cl)ncn1` [Example P44, 2-(2-chloropyridin-3-yl)-1-(7-fluoro-5-(6-((1-methyl-1H-pyrazol-5-yl)amino)pyrimidin-4-yl)indolin-1-yl)ethan-1-one], 7.00 to 8.00.
On the same count and under the same terms, the result for `O=C(Cc1cccnc1Cl)N1CCc2cc(-c3ccnc(NC4CCOC4)n3)cc(F)c21` (stereo not shown) [Example P6, 2-(2-chloropyridin-3-yl)-1-(7-fluoro-5-(2-((tetrahydrofuran-3-yl)amino)pyrimidin-4-yl)indolin-1-yl)ethan-1-one] reads 7.00 to 8.00.
